Columns and labels:
[1] = system: S. aureus; experiment: Inhibition of RIND IX reduction by various cyclic polypeptide antibiotics; format: cell-based, Staphylococcus aureus; conditions: Test Method 1 (antibiotic in the test solution), S. aureus about 4.3×10^8 cells/ml, 100 μl of 1 mg/ml antibiotic solution, 30 minutes at 37° C., 635 nm
Method: The following materials were used in this example: stock solutions of RIND IX compound dispersion prepared as described above, glucose (10% in water), trimethyl-1,4-benzoquinone ETA (1.5 mg/ml methanol), and the antibiotics (1 mg/ml in dimethylsulfoxide). S. aureus cells were grown as described above. The final cell concentration in the assay mixture was about 4.3×10^8 cells/ml.
Test solutions were prepared by adding in the order: 1.2 ml of HEPES buffer, 50 μl glucose solution, 1.5 ml of RIND IX dispersion, 100 μl of antibiotic solution, 100 μl of cell suspension and 25 μl of ETA solution. Control solutions were prepared as described in Examples 2 and 3. Optical density readings (OD) were measured at 635 nm at 0 minutes and after incubation at 37° C. for 30 minutes for test and control solutions, and the change in density (ΔOD) was determined. Table VI below lists the results, expressed as corrected percent inhibition of the reduction of the RIND compound. The corrected percent inhibition is calculated by dividing the difference between the ΔOD obtained from the Cell Control without antibiotic and the ΔOD of the test solution, by ΔOD of the Cell Control without antibiotic. All readings were corrected by subtracting readings of the appropriate background Controls.
Solutions containing 2.9 ml HEPES, 50 μl of the antibiotic solution and 100 μl cell solution were incubated at 37° C. for 30 minutes, centrifuged for 10 minutes and decanted. The resulting pellet was then treated with 1.4 ml HEPES, 50 μl glucose solution, 1.5 ml RIND IX dispersion and 25 μl ETA solution, mixed well and the densities recorded as described above in Method 1. The corrected percent inhibition data was calculated as described in Method 1 above.

[2] = system: K. pneumoniae; experiment: RIND XXIX reduction solution assay, Δ fluorescence; format: cell-based, Klebsiella pneumoniae; conditions: K. pneumoniae (gram -) about 5×10^7 cells/ml, polymixin B at 0.01 mg/ml of methanol
Method: (§1) Bacterial suspensions were prepared by growing the cells in BHT broth to stationary phase overnight at 37° C. P. auruginosa was grown with agitation. About 40 ml of each overnight culture was centrifuged, decanted and washed once with 0.05 molar potassium phosphate buffer or 0.05 molar N-2-hydroxy-ethylpiperazine-N'-2-ethanesulfonic acid (HEPES) buffer, pH 7.8, and resuspended in buffer.
(§2) Dispersions containing RIND compounds were prepared by dissolving the RIND compound in N,N-dimethylformamide (DMF) at 16 mg compound per ml of solvent. An aliquot (250 μl) of the resulting solution was added to 500 μl of TRITON X-100 surfactant. This mixture was then added dropwise with stirring to 25 ml of 0.05 molar HEPES buffer. A dispersion of RIND XXIX was prepared similarly except that DMF was acidified with 0.1% sulfuric acid. Compositions containing water-compatible RIND compounds were prepared as described above except the surfactant was omitted.
(§3) Each test solution contained the following: dispersion of RIND XXIX (25 μl) prepared as described above, glucose (400 μl of 10% aqueous solution), tryptose (400 μl of 10% aqueous solution), trimethyl-1,4-benzoquinone ETA (500 μl of 1.5 mg/ml methanol). Aliquots (200 μl) of the mixture were mixed with solutions of the antibiotics (50 μl). The cell suspensions (50 μl) were then added. The final concentration of gramcidin S and tyrocidin were 0.1 mg/ml and 3.3 mg/ml, respectively. The final cell concentration was about 5×10^7 cells/ml. Cell control solutions contained all reagents except antibiotics. Background controls consisted of both buffer and solution controls. […]
(§4) The solutions were incubated at 37° C. for 30 minutes, and the change in fluorescence emission (Δ fluorescence) was determined as the difference between the readings taken when the solutions were first mixed and then after 30 minutes incubation. Measurements were made in a commercially available MICROFLUOR Reader (available from Dynatech Laboratories, Alexandria, Virginia, U.S.A.), modified with an excitation filter at 540 nm, an emission filter at 620 nm and a Xenon lamp. […]

[3] = system: E. cloacae; experiment: RIND XXIX reduction solution assay, Δ fluorescence; format: cell-based, Enterobacter cloacae; conditions: E. cloacae (gram -) about 5×10^7 cells/ml, polymixin B at 0.01 mg/ml of methanol
Method: as §1, §2, §3, §4

[4] = system: E. coli; experiment: RIND XXIX reduction solution assay, Δ fluorescence; format: cell-based, Escherichia coli; conditions: E. coli (gram -) about 5×10^7 cells/ml, polymixin B at 0.01 mg/ml of methanol
Method: as §1, §2, §3, §4

[5] = system: viable gram-positive and gram-negative bacteria; experiment: Differentiation in RIND XXIX solution assays, overall result; format: cell-based; conditions: polymixin B at 0.01 mg/ml of methanol
Method: Each test solution contained the following: dispersion of RIND XXIX (25 μl) prepared as described above, glucose (400 μl of 10% aqueous solution), tryptose (400 μl of 10% aqueous solution), trimethyl-1,4-benzoquinone ETA (500 μl of 1.5 mg/ml methanol). Aliquots (200 μl) of the mixture were mixed with solutions of the antibiotics (50 μl). The cell suspensions (50 μl) were then added. The final concentration of gramcidin S and tyrocidin were 0.1 mg/ml and 3.3 mg/ml, respectively. The final cell concentration was about 5×10^7 cells/ml. Cell control solutions contained all reagents except antibiotics. Background controls consisted of both buffer and solution controls. The buffer control contained all reagents except antibiotics and cells. The solution control contained all reagents except cells.
The solutions were incubated at 37° C. for 30 minutes, and the change in fluorescence emission (Δ fluorescence) was determined as the difference between the readings taken when the solutions were first mixed and then after 30 minutes incubation. Measurements were made in a commercially available MICROFLUOR Reader (available from Dynatech Laboratories, Alexandria, Virginia, U.S.A.), modified with an excitation filter at 540 nm, an emission filter at 620 nm and a Xenon lamp.
This example illustrates the practice of this invention to identify a Proteus species in solution. Test solutions and cell control solutions were prepared and tested as described in Example 2 and 3 except that polymixin B was used at 0.01 mg/ml of methanol. The final cell concentration was about 5×10^7 cells/ml.

[6] = system: P. aeruginosa; experiment: RIND XXIX reduction solution assay, Δ fluorescence; format: cell-based, Pseudomonas aeruginosa; conditions: P. aeruginosa (gram -) about 5×10^7 cells/ml, polymixin B at 0.01 mg/ml of methanol
Method: as §1, §2, §3, §4

[7] = system: P. vulgaris; experiment: RIND XXIX reduction solution assay, Δ fluorescence; format: cell-based, Proteus vulgaris; conditions: P. vulgaris (gram -) about 5×10^7 cells/ml, polymixin B at 0.01 mg/ml of methanol
Method: as §1, §2, §3, §4

**Q.** With `CN[C@H](CC(C)C)C(=O)N[C@H]1C(=O)N[C@@H](CC(N)=O)C(=O)N[C@H]2C(=O)N[C@H]3C(=O)N[C@H](C(=O)N[C@H](C(=O)O)c4cc(O)cc(O)c4-c4cc3ccc4O)[C@H](O)c3ccc(c(Cl)c3)Oc3cc2cc(c3O[C@@H]2O[C@H](CO)[C@@H](O)[C@H](O)[C@H]2O[C@H]2C[C@](C)(N)[C@H](O)[C@H](C)O2)Oc2ccc(cc2Cl)[C@H]1O` [Vancomycin, vancomycin] as the compound, how does the “Corrected % Inhibition” value [1] read?
**A.** The value was “No Inhibition”.

**Q.** With polymixin B as the compound, how does the “Δ Relative Fluorescence (30 Minutes)” value [2] read?
**A.** The value was 1212.

**Q.** What about the “Δ Relative Fluorescence (30 Minutes)” value [3] of the same compound?
**A.** Its value is 1975.

**Q.** What about the “Δ Relative Fluorescence (30 Minutes)” value [4] of the same compound?
**A.** Its value is 1245.

**Q.** And the “inhibition of reduction of RIND XXIX by gram-negative microorganisms, in words” value [5]?
**A.** The value was “inhibited all of the gram-negative microorganisms except Proteus vulgaris from reducing the RIND XXIX compound”.

**Q.** What about the “Δ Relative Fluorescence (30 Minutes)” value [6] of the same compound?
**A.** Its value is 1287.

**Q.** And the “Δ Relative Fluorescence (30 Minutes)” value [7]?
**A.** Its value is 3079.

Reference: patent US4912036A, “Rapid differentiation of bacteria using cyclic polypeptide antibiotics” (Eastman Kodak Company, priority 1986, dated 1990)
